From ChEMBL document CHEMBL1201862, “PubChem BioAssay data set” (2004)
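A five-concentration, 48-hour dose response in 96-well plates underlies each endpoint, interpolated linearly between surrounding concentrations. Abbreviation: GI50, concentration required for 50% inhibition of growth.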 Active and inactive are the calls of the source. Rule as the data show it: active = GI50 up to about 1.1 µM and inactive = higher.

What was measured:
Experiment in all cases: DTP human tumour cell line panel, 48 h
786-0 = test system: 786-0
NCI-H522 = test system: NCI-H522
RXF 393 = test system: RXF 393
LOX IMVI = test system: LOX IMVI
COLO 205 = test system: COLO 205
SR = test system: SR
KM12 = test system: KM12
A498 = test system: A498
SK-OV-3 = test system: SK-OV-3
TK-10 = test system: TK-10
CAKI-1 = test system: CAKI-1
OVCAR-8 = test system: OVCAR-8
SN12C = test system: SN12C
OVCAR-4 = test system: OVCAR-4
SNB-75 = test system: SNB-75
DLD-1 = test system: DLD-1
PC-3 = test system: PC-3
BT-549 = test system: BT-549
NCI/ADR-RES = test system: NCI/ADR-RES
DU-145 = test system: DU-145

Measured: GI50

COC1(OC)CC2C(=O)N(Cc3ccccc3)C1C(S(=O)(=O)c1ccccc1)C2S(=O)(=O)c1ccccc1 (stereo unspecified)
inactive: 786-0 16.9 µM | NCI-H522 2.02 µM | RXF 393 12.6 µM | LOX IMVI 10.2 µM | COLO 205 4.53 µM | SR 5.31 µM | KM12 16.4 µM | A498 18.2 µM | SK-OV-3 30 µM | TK-10 15.2 µM | CAKI-1 13.8 µM | OVCAR-8 8.07 µM | SN12C 12.7 µM | OVCAR-4 15.1 µM | SNB-75 14.2 µM | DLD-1 3.52 µM

CCCCCCCCCCC(=O)CCCCCCC(=O)O
inactive: 786-0 18.8 µM | NCI-H522 21.4 µM | RXF 393 36.3 µM | LOX IMVI 15.7 µM | COLO 205 15.4 µM | SR 18.2 µM | KM12 15.5 µM | A498 20.1 µM | SK-OV-3 53.8 µM | TK-10 32.1 µM | CAKI-1 30.5 µM | OVCAR-8 17.8 µM | SN12C 27.3 µM | OVCAR-4 45.6 µM | SNB-75 29.6 µM | DLD-1 19 µM

O=C1C(CN2CCCCC2)CCCC1CN1CCCCC1 (stereo unspecified)
inactive: PC-3 16.1 µM | 786-0 8.26 µM | RXF 393 16.3 µM | LOX IMVI 16.9 µM | SR 15.3 µM | KM12 37 µM | SK-OV-3 > 100 µM | BT-549 16.4 µM | NCI/ADR-RES 18.5 µM | OVCAR-8 18.5 µM | DU-145 17.8 µM | SN12C 32.7 µM | OVCAR-4 14.4 µM | DLD-1 10.1 µM

COc1cc2cc3c4cc(OC)c(OC)cc4cc[n+]3c(C)c2cc1OC.O=C([O-])CS(=O)(=O)O
inactive: PC-3 74.5 µM | 786-0 88.3 µM | NCI-H522 4.88 µM | RXF 393 > 100 µM | LOX IMVI > 100 µM | COLO 205 57 µM | SR > 100 µM | KM12 > 100 µM | A498 22.3 µM | SK-OV-3 > 100 µM | TK-10 > 100 µM | BT-549 33.5 µM | NCI/ADR-RES > 100 µM | CAKI-1 > 100 µM | OVCAR-8 24.3 µM | DU-145 28.4 µM | SN12C 3.27 µM | OVCAR-4 17.7 µM | SNB-75 12.3 µM | DLD-1 > 100 µM
